Experimental data published in US20050119301A1, “Treatment of restenosis” (priority 2001, published 2005).

Columns and labels:
LDL [1] = assay: LDL antioxidation test (CuCl2-initiated LDL oxidation, lag time); type: biochemical, human; details: 10 mM; Promensil 5 mg/ml
Procedure: The LDL antioxidation test measures the ability of a compound to directly scavenge free radicals or to chelate transition metals. Thus in this series of experiments, the isoflavones and their derivatives were tested for their ability to act as free radical scavengers.
Fresh whole blood was obtained by venipuncture from healthy human volunteers under 25 years of age and supplemented immediately with EDTA (91 mg/ml) and BHT (4.4 mg/ml). LDL was prepared by step-wise ultracentrifugation within a density gradient of 1.02-1.05 g/cm^3. EDTA and BHT were present throughout all the steps of the isolation. The EDTA/BHT containing stock solution (15-30 mg LDL/ml) was stored in the dark in a nitrogen atmosphere until use, but never longer than two weeks.
Before oxidation experiments, the LDL stock solution was dialyzed in the 100-fold volume of 0.01 M phosphate buffer pH 7.4, 0.16 M NaCl, 0.1 mg/ml chloroamphenicol, which was made oxygen-free by vacuum degassing following by purging with nitrogen. The buffer was changed four times. This EDTA- and BHT-free LDL stock solution was used for all oxidation studies. The stock solution was stored not longer than 24 hr at 4° C. For performing the oxidation experiments, the EDTA- and BHT-free LDL stock solution was diluted with oxygen-saturated 0.01 M phosphate buffer pH 7.4, 0.16 M NaCl and the oxidation was initiated by the addition of a freshly prepared aqueous CuCl2 solution. The final conditions were in all experiments: room temperature, 0.25 mg LDL/ml and […] (see Esterbauer et. al., 1989)
The antioxidant activities of the following compounds were tested: daidzein ([…]), genistein ([…]), glycitein ([…]), biochanin ([…]), formononetin ([…]), Promensil™ (Novogen) (2.5 mg/ml, 5 mg/ml), Cpd. 5 (10 mM), Cpd. 7 (10 mM), Cpd. 8 (10 mM), Cpd. 12 (10 mM), Cpd. 4 (10 mM) and Cpd. 6 (10 mM). In each experiment, controls were used to compare the relative effectiveness of the Novogen isoflavone derivatives to common and well-known antioxidants such as ascorbate (2.5 mM; Vitamin C).

[2] = Peroxyl radical scavenging, AAPH-induced oxidation of linoleate; type: biochemical; parameters: dose or concentration left out as unconfirmed
Procedure: Peroxyl radicals are natural side-products of a number of enzymes, including lipoxygenases and cyclo-oxygenase. Peroxyl radicals were generated by the thermo-labile azo-initiator AAPH. AAPH-induced oxidation of linoleate was performed as described previously (Pryor et al., 1993), except that a lower linoleate concentration was used and SDS was omitted. An aliquot of a linoleate stock solution was added to PBS at 37° C. to give a final concentration of […]. Oxidation was initiated by the addition of AAPH (87.5 mM final concentration) in the absence and presence of either 10 mM of Cpd. 7, Cpd. 8 or Cpd. 12 or 500 mM ascorbate (positive control). Formation of linoleate hydroperoxide was monitored by UV 234 nm using a Perkin Elmer's UV/Vis Lambda 40 spectrophotometer. The test was performed twice as single analysis. An appropriate concentration of alcohol (ethanol and isopropanol; 0.13%-0.2% v/v) was included in the respective control samples.

LDL receptor = LDL receptor expression on HepG2 cells, [125I]-LDL specific binding; type: cell-based, human; details: for LDL receptor expression, Experiment 3 / LDL receptor expression, Experiment 2 / LDL receptor expression, Experiment 1: 48 hours; for LDL receptor expression, Experiment 3: control 130 ± 18; for LDL receptor expression, Experiment 2: control 261 ± 57; for LDL receptor expression, Experiment 1: control 283 ± 32; for effect on LDL binding / LDL receptor expression over control (in words): HepG2
Procedure: Confluent human hepatoma (HepG2) cells were preincubated in the absence or presence of the test compound (Cpd. 7, Cpd. 8 and Cpd. 12 at final concentration of 50 nM, 500 nM and […]) for 48 hours, in complete DMEM medium containing 10% fetal bovine serum (FBS). Serum deprivation (i.e. 0.5% FBS) was used as a positive control to induce LDL receptor expression. Following preincubation, cells were washed before […] of [^125I]-LDL (specific activity 6.5-29.5 cpm/fmol) was added and the cells incubated at 4° C. for another 4 hours in the absence (for total binding) and presence of […] unlabelled LDL (to assess non-specific binding). Cells were then washed, lysed (0.1 M NaOH), and the radioactivity and protein content (BCA assay) of the lysate determined. The number of LDL receptors was determined from the specific binding (total binding minus non-specific binding), assuming one molecule of LDL binds per LDL receptor. Three independent experiments (each in triplicate) were performed with different batches of cells and [^125I]-LDL.
To determine the concentration of LDL needed to reach binding saturation, confluent HepG2 cells were incubated in 12-well plates with increasing concentrations of [^125I]-LDL in the presence of excess (i.e., […]) unlabelled LDL. […] Using this concentration, the time required to reach saturation binding at 4° C. was determined to be approximately 4 hours. These established optimal conditions were used for all subsequent binding assays.

[3] = test system: Human umbilical vein endothelial cells; assay: Endothelial cell proliferation assay; type: cell-based; details: Cpd. 8 1-10 mg/ml; for endothelial cell proliferation (in words): 3 days, two donors, Cpd. 5, 7, 12 0.01-10 mg/ml; for toxicity to endothelial cells: Cpd. 12 0.01-10 mg/ml
Procedure: Human umbilical vein endothelial cells between passage 1 and 3 were used. Cells were grown in gelatin coated flasks in medium 199 with Earle's Salts supplemented with 20% foetal calf serum, 25 mg/ml endothelial cell growth supplement and 25 mg/ml heparin. Cells from two different donors were used.
5×10^3 cells in […] growth medium were plated into gelatin coated microtitre wells. The test compounds were added at plating. The cells were then incubated for 3 days and cell number determined by a calorimetric assay (CellTiter96 Aqueous assay, Promega). Results were compared to a standard curve performed in each experiment. Two different endothelial cell isolates were used and the assays were performed on two different days. The effect of isoflavone derivatives on the proliferation of human umbilical vein endothelial cells are shown for donor No. 1 (FIG. 15) and donor No. 2 (FIG. 16).

LDL [4] = assay: LDL antioxidation test (CuCl2-initiated LDL oxidation, lag time); type: biochemical, human; details: Table 3, 10 μM; for Lag Time: control 20 min

SMILES	ability to scavenge free radicals (in words) (LDL [1])	inhibition of AAPH-induced oxidation of linoleic acid, 234 nm absorbency (in words) [2]	LDL receptor expression, Experiment 3 (LDL receptor; 50 nM)	LDL receptor expression, Experiment 2 (LDL receptor; 50 nM)	LDL receptor expression, Experiment 1 (LDL receptor; 50 nM, mean ± SD, n = 3)	LDL receptor expression, Experiment 3 (LDL receptor; 500 nM)	LDL receptor expression, Experiment 2 (LDL receptor; 500 nM)	LDL receptor expression, Experiment 1 (LDL receptor; 500 nM)	effect on LDL binding / LDL receptor expression over control (in words) (LDL receptor)	endothelial cell proliferation (in words) [3]	toxicity to endothelial cells [3]	% Increase in Time (LDL [4]) [%]	Lag Time (LDL [4]) [min]
Oc1ccc(C2COc3cc(O)ccc3C2O)cc1 (centres unmarked) [Cpd. 8]	very active scavengers	As for peroxyl radicals, neither Cpd. 7 nor Cpd. 8 were able to inhibit	152 ± 24 fmol LDL receptors per mg cell protein	291 ± 66 fmol LDL receptors per mg cell protein	273 ± 22 fmol LDL receptors per mg cell protein	193 ± 18 fmol LDL receptors per mg cell protein	291 ± 52 fmol LDL receptors per mg cell protein	312 ± 42 fmol LDL receptors per mg cell protein	increased LDL binding	inhibited cellular proliferation	did not cause toxicity	>600	>140
O=C1c2ccc(O)cc2OCC1c1ccc(O)cc1 (centres unmarked) [Cpd. 5]										no apparent effect on endothelial cell proliferation		0	20
Oc1ccc(C2COc3cc(O)ccc3C2O)cc1 (centres unmarked) [Cpd. 7]	significantly less active than Cpd. 8 and Cpd. 12 but still almost as active as ascorbate	As for peroxyl radicals, neither Cpd. 7 nor Cpd. 8 were able to inhibit	159 ± 30 fmol LDL receptors per mg cell protein	239 ± 49 fmol LDL receptors per mg cell protein	299 ± 45 fmol LDL receptors per mg cell protein	171 ± 14 fmol LDL receptors per mg cell protein	199 ± 58 fmol LDL receptors per mg cell protein	281 ± 22 fmol LDL receptors per mg cell protein	increased LDL binding	no appreciable antiproliferative action		100	50
Oc1ccc(C2=Cc3ccc(O)cc3OC2)cc1 [Cpd. 12]	very active scavengers	significantly inhibited the time-dependent increase in 234 nm absorbency	156 ± 24 fmol LDL receptors per mg cell protein	134 ± 52 fmol LDL receptors per mg cell protein	319 ± 43 fmol LDL receptors per mg cell protein	136 ± 23 fmol LDL receptors per mg cell protein	233 ± 40 fmol LDL receptors per mg cell protein	311 ± 35 fmol LDL receptors per mg cell protein	without consistent effect	inhibited cellular proliferation	did not cause toxicity	>600	>140
